In patent publication US9376436B2, “2-(pyridin-2yl)-1, 7-diaza-spiro [4.4] nonane-6-one compound as voltage-gated sodium channels modulators” (CONVERGENCE PHARMACEUTICALS LIMITED, priority 2011, dated 2016):
Counter-ions that a name gives are not always drawn. Like-named read-outs stand apart in the source and are kept apart here.

Biological target: T1, hNaV1.7 (Homo sapiens, UniProt Q15858)
T1 construct: expressed in transfected cells; host or cells: HEK293
Test: QPatch NaV1.7 assay (whole-cell patch clamp, QPatch16x)
Assay type: cell-based
Details: HEK293-hNaV1.7 cells
Procedure, shortened: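 Automated whole-cell recordings in hNaV1.7-expressing HEK293 cells, holding at either −90 mV (mostly closed channels) or the half-inactivation voltage. Compounds applied cumulatively at four concentrations for 120 s each; peak current on 20 ms depolarisation to 0 mV fitted by Hill equation to yield pIC50.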

[1] = holding voltage V1/2 SSI (half of channels inactivated), read-out: QP Nav1.7 SSI vhalf pIC50 (converted)
[2] = holding voltage −90 mV (most channels closed), read-out: QP Nav1.7 −90 mV pIC50 (converted)

T1 sequence (Q15858 whole entry): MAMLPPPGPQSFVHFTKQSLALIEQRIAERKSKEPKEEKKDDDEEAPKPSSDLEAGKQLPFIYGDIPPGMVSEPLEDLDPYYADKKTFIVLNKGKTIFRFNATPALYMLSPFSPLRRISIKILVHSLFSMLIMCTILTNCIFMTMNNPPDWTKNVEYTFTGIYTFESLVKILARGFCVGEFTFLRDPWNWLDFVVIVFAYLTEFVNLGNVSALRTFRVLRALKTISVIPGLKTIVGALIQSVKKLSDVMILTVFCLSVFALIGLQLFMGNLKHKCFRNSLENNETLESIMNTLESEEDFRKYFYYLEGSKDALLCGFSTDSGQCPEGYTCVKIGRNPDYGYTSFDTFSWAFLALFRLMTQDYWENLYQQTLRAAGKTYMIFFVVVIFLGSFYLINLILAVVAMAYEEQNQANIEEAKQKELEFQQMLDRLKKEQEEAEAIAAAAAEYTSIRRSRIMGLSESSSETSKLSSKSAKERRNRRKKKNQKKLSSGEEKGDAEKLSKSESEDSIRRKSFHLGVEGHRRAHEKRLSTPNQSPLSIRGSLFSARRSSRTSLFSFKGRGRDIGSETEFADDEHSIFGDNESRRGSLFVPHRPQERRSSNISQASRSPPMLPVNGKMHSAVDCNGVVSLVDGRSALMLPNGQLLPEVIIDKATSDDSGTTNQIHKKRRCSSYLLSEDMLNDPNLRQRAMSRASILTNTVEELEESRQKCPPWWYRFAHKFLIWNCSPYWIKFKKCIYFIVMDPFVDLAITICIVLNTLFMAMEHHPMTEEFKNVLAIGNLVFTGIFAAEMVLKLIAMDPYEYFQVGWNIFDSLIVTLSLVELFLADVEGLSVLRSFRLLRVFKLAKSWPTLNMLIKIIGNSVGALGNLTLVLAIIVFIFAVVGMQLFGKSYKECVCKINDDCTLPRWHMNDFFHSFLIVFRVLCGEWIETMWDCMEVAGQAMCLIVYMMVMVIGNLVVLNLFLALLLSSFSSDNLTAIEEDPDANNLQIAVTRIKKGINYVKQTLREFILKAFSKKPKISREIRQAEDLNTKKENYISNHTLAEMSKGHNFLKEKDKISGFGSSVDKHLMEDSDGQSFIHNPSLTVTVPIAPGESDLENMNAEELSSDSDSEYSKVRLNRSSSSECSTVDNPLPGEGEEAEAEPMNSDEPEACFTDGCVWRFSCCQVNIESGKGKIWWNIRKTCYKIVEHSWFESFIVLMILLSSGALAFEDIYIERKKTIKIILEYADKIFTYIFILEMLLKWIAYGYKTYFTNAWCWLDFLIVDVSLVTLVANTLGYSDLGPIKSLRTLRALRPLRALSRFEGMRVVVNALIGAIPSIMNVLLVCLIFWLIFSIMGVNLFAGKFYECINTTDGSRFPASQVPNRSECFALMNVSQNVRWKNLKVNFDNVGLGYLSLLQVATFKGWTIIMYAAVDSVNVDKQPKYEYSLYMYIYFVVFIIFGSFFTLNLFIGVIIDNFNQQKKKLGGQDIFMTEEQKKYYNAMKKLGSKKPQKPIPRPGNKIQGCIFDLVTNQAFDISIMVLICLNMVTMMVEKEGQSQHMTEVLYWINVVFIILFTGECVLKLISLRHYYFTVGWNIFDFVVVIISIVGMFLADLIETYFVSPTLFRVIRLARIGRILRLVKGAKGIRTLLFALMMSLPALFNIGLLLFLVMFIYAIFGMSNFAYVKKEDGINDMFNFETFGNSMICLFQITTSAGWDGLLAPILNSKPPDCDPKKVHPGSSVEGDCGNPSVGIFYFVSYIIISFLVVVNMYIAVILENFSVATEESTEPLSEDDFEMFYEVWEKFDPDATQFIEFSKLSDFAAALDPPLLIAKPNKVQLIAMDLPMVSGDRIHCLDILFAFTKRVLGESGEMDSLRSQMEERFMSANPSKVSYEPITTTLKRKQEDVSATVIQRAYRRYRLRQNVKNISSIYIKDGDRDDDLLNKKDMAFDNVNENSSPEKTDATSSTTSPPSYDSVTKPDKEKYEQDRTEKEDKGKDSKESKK

| Structure (SMILES) | IC50 [1] [µM] | IC50 [2] [µM] |
| --- | --- | --- |
| CN1CC[C@@]2(CC[C@H](c3cc(-c4cc(N5CCCC5=O)ccc4F)ccn3)N2)C1=O [Example 160, (2R,5S)-2-[4-[2-Fluoro-5-(2-oxopyrrolidin-1-yl)phenyl]-2-pyridyl]-7-methyl-1,7-diazaspiro[4.4]nonan-6-one hydrochloride] | 1580 | – |
| CC(C)Oc1ccc(-c2ccnc([C@@H]3CC[C@@]4(CCN(C)C4=O)N3)c2)cc1 [Example 161, (2S,5S)-2-[4-(4-Isopropoxyphenyl)-2-pyridyl]-7-methyl-1,7-diazaspiro[4.4]nonan-6-one hydrochloride] | 39.8 | 126 |
| CC(C)Oc1ccc(-c2ccnc([C@H]3CC[C@@]4(CCN(C)C4=O)N3)c2)cc1 [Example 162, (2R,5S)-2-[4-(4-Isopropoxyphenyl)-2-pyridyl]-7-methyl-1,7-diazaspiro[4.4]nonan-6-one hydrochloride] | 3.98 | 15.8 |
| CN1CC[C@@]2(CC[C@H](c3cc(-c4cccc5cccnc45)ccn3)N2)C1=O [Example 164, (2R,5S)-7-Methyl-2-[4-(8-quinolyl)-2-pyridyl]-1,7-diazaspiro[4.4]nonan-6-one hydrochloride] | 39.8 | 1260 |
| CN1CC[C@@]2(CC[C@H](c3cc(-c4cccc(Cl)c4C#N)ccn3)N2)C1=O [Example 165, 2-Chloro-6-[2-[(2R,5S)-7-methyl-6-oxo-1,7-diazaspiro[4.4]nonan-2-yl]-4-pyridyl]benzonitrile hydrochloride] | 100 | 158 |
| CN1CC[C@@]2(CC[C@H](c3cc(-c4ccc5c(c4)CCO5)ccn3)N2)C1=O [Example 166, (2R,5S)-2-[4-(2,3-Dihydrobenzofuran-5-yl)-2-pyridyl]-7-methyl-1,7-diazaspiro[4.4]nonan-6-one hydrochloride] | 126 | 2000 |
| COCc1cccc(-c2ccnc([C@H]3CC[C@@]4(CCN(C)C4=O)N3)c2)c1 [Example 168, (2R,5S)-2-[4-[3-(methoxymethyl)phenyl]-2-pyridyl]-7-methyl-1,7-diazaspiro[4.4]nonan-6-one hydrochloride] | 158 | 316 |
| CC(C)CCn1cc(-c2ccnc([C@H]3CC[C@@]4(CCN(C)C4=O)N3)c2)cn1 [Example 170, (2R,5S)-2-[4-(1-Isopentylpyrazol-4-yl)-2-pyridyl]-7-methyl-1,7-diazaspiro[4.4]nonan-6-one hydrochloride] | 25.1 | 398 |

Continued, values first:

| IC50 [1] [µM] | IC50 [2] [µM] | Structure (SMILES) |
| --- | --- | --- |
| 63.1 | 1260 | CCOc1c(F)cccc1-c1ccnc([C@H]2CC[C@@]3(CCN(C)C3=O)N2)c1 [Example 158, (2R,5S)-2-[4-(2-Ethoxy-3-fluoro-phenyl)-2-pyridyl]-7-methyl-1,7-diazaspiro[4.4]nonan-6-one hydrochloride] |
| 7.94 | 31.6 | CC(C)c1ccc(F)c(-c2ccnc([C@H]3CC[C@@]4(CCN(C)C4=O)N3)c2)c1 [Example 159, (2R,5S)-2-[4-(2-Fluoro-5-isopropyl-phenyl)-2-pyridyl]-7-methyl-1,7-diazaspiro[4.4]nonan-6-one hydrochloride] |
| – | 7940 | COc1ccc(-c2ccnc([C@H]3CC[C@@]4(CCN(C)C4=O)N3)c2)cc1OC [Example 163, (2R,5S)-2-[4-(3,4-Dimethoxyphenyl)-2-pyridyl]-7-methyl-1,7-diazaspiro[4.4]nonan-6-one hydrochloride] |
| 39.8 | 39.8 | CCOc1ccc(-c2ccnc([C@H]3CC[C@@]4(CCN(C)C4=O)N3)c2)cc1C [Example 167, (2R,5S)-2-[4-(4-Ethoxy-3-methyl-phenyl)-2-pyridyl]-7-methyl-1,7-diazaspiro[4.4]nonan-6-one hydrochloride] |
| 6.31 | 126 | CCOc1cc(F)ccc1-c1ccnc([C@H]2CC[C@@]3(CCN(C)C3=O)N2)c1 [Example 169, (2R,5S)-2-[4-(2-Ethoxy-4-fluoro-phenyl)-2-pyridyl]-7-methyl-1,7-diazaspiro[4.4]nonan-6-one hydrochloride] |
